From patent publication US11479528B2, “Heat shock protein 90 inhibitors” (TAIPEI MEDICAL UNIVERSITY, priority 2017, dated 2022)
Read-outs that look alike come from different tables or passages of the source.

Legend:
colorectal HCT116 = test: Sulforhodamine B (SRB) assay, colorectal HCT116; assay type: cell-based; conditions: Homo sapiens, HCT-116, SRB
Experimental: (§1) Human cancer cells were purchased from the American Type Culture Collection (Manassas, Va., USA). These cell lines were cultured in RPMI 1640 medium or DMEM supplemented with 10% FBS (v/v) and pencillin (100 U/mL)/streptomycin (100 ug/mL)/amphotericin B (0.25 ug/mL). Cultures were maintained at 37° C. in a humidified atmosphere of 5% CO2/95% air.
(§2) Cells were seeded in 96-well plates in medium with 5% fetal bovine serum. After 24 h, cells were fixed with 10% trichloroacetic acid to represent cell population at the time of drug addition (T0). After additional incubation of DMSO or drugs for 48 h, cells were fixed with 10% trichloroacetic acid and sulforhodamine B at 0.4% (w/v) in 1% acetic acid was added to stain cells. Unbound sulforhodamine B was washed out by 1% acetic acid and sulforhodamine B-bound cells were solubilized with 10 mmol/L Trizma base. The absorbance was read at a wavelength of 515 nm. Using the following absorbance measurements, such as time zero (T0), control growth (C), and cell growth in the presence of the drug (Tx), the percentage growth was calculated at each of the compound concentrations levels. Percentage growth inhibition was calculated as […].

lung A549 = test: Sulforhodamine B (SRB) assay, lung A549; assay type: cell-based, human
Experimental: Human cancer cells were purchased from the American Type Culture Collection (Manassas, Va., USA).
Cells were seeded in 96-well plates in medium with 5% fetal bovine serum. […] Unbound sulforhodamine B was washed out by 1% acetic acid and sulforhodamine B-bound cells were solubilized with 10 mmol/L Trizma base. […] Using the following absorbance measurements, such as time zero (T0), control growth (C), and cell growth in the presence of the drug (Tx), the percentage growth was calculated at each of the compound concentrations levels. Percentage growth inhibition was calculated as […].

prostate PC3 = test: Sulforhodamine B (SRB) assay, prostate PC3; assay type: cell-based; conditions: Homo sapiens, Table 1, 48 h
Experimental: as §1, §2

[1] = Homo sapiens, A549, 48 h, read-out: GI50 Lung A549
[2] = Table 1, 48 h, read-out: GI50 Colorectal HCT116
[3] = Homo sapiens, A549, Table 1, SRB, 48 h, read-out: GI50 Lung A549

Row | Structure (SMILES) | GI50 (lung A549; [1]) [nM] | GI50 (lung A549; [3]) [nM] | GI50 (prostate PC3) [nM] | also measured
1 | C=CCNC1=C2C[C@@H](C)C[C@H](OC)[C@H](O)[C@@H](C)/C=C(\C)[C@H](OC(N)=O)[C@@H](OC)/C=C\C=C(/C)C(=O)NC(=CC1=O)C2=O [Compound 17-AAG, 17-allylamino-17-desmethoxygeldanamycin, reference compound] | – | – | – | GI50 (colorectal HCT116; Table 2, read-out: HCT116 GI50): 340 ± 60 nM; GI50 (lung A549; Homo sapiens, A549, Table 2, SRB, read-out: A549 GI50): 80 ± 10 nM
2 | CC(C)c1cc(C(=O)Nc2ccc3cc[nH]c3c2)c(O)cc1O [Compound 21a, 2,4-dihydroxy-N-(1H-indol-6-yl)-5-isopropylbenzamide] | 300 ± 30 | – | – | –
3 | CC(C)c1cc(C(=O)Nc2ccc3ccn(C)c3c2)c(O)cc1O [Compound 21b, 2,4-dihydroxy-5-isopropyl-N-(1-methyl-1H-indol-6-yl)benzamide] | > 10000 | – | – | –
4 | CC(C)c1cc(C(=O)N(C)c2ccc3ccn(C)c3c2)c(O)cc1O [Compound 21c, 2,4-dihydroxy-5-isopropyl-N-methyl-N-(1-methyl-1H-indol-6-yl)benzamide] | 100 ± 20 | – | – | –
5 | CCN(C(=O)c1cc(C(C)C)c(O)cc1O)c1ccc2ccn(C)c2c1 [Compound 21d, N-ethyl-2,4-dihydroxy-5-isopropyl-N-(1-methyl-1H-indol-6-yl)benzamide] | 90 ± 10 | – | – | –
6 | CCCN(C(=O)c1cc(C(C)C)c(O)cc1O)c1ccc2ccn(C)c2c1 [Compound 21e, 2,4-dihydroxy-5-isopropyl-N-(1-methyl-1H-indol-6-yl)-N-propylbenzamide] | 1620 ± 120 | – | – | –
7 | CC(C)c1cc(C(=O)N(c2ccc3ccn(C)c3c2)C(C)C)c(O)cc1O [Compound 21f, 2,4-dihydroxy-N,5-diisopropyl-N-(1-methyl-1H-indol-6-yl)benzamide] | 840 ± 40 | – | – | –
8 | CC(C)c1cc(C(=O)Nc2cccc3ccn(C)c23)c(O)cc1O [Compound 22a, 2,4-dihydroxy-5-isopropyl-N-(1-methyl-1H-indol-7-yl)benzamide] | > 10000 | – | – | –
9 | CC(C)c1cc(C(=O)N(C)c2cccc3ccn(C)c23)c(O)cc1O [Compound 22b, 2,4-dihydroxy-5-isopropyl-N-methyl-N-(1-methyl-1H-indol-7-yl)benzamide] | > 10000 | – | – | –
10 | CCN(C(=O)c1cc(C(C)C)c(O)cc1O)c1cccc2ccn(C)c12 [Compound 22c, N-ethyl-2,4-dihydroxy-5-isopropyl-N-(1-methyl-1H-indol-7-yl)benzamide] | > 10000 | – | – | –
11 | CCCN(C(=O)c1cc(C(C)C)c(O)cc1O)c1cccc2ccn(C)c12 [Compound 22d, 2,4-dihydroxy-5-isopropyl-N-(1-methyl-1H-indol-7-yl)-N-propylbenzamide] | > 10000 | – | – | –
12 | CC(C)c1cc(C(=O)N(c2cccc3ccn(C)c23)C(C)C)c(O)cc1O [Compound 22e, 2,4-dihydroxy-N,5-diisopropyl-N-(1-methyl-1H-indol-7-yl)benzamide] | > 10000 | – | – | –
13 | CC(C)c1cc(C(=O)N(C)c2ccc3c(c2)CCN3)c(O)cc1O [Compound 23b, 2,4-dihydroxy-N-(indolin-5-yl)-5-isopropyl-N-methylbenzamide] | – | 2820 ± 30 | – | GI50 (colorectal HCT116; [2]): 5530 ± 380 nM
14 | CC(C)c1cc(C(=O)N(C)c2cnc3c(ccn3C)c2)c(O)cc1O [Compound 24c, 2,4-dihydroxy-5-isopropyl-N-methyl-N-(1-methyl-1H-pyrrolo[2,3-b]pyridin-5-yl)benzamide] | – | 270 ± 30 | – | GI50 (colorectal HCT116; [2]): 710 ± 80 nM
15 | CCN(C(=O)c1cc(C(C)C)c(O)cc1O)c1cnc2c(ccn2C)c1 [Compound 24d, N-ethyl-2,4-dihydroxy-5-isopropyl-N-(1-methyl-1H-pyrrolo[2,3-b]pyridin-5-yl)benzamide] | – | 230 ± 30 | – | GI50 (colorectal HCT116; [2]): 440 ± 190 nM
16 | CCCN(C(=O)c1cc(C(C)C)c(O)cc1O)c1cnc2c(ccn2C)c1 [Compound 24e, 2,4-dihydroxy-5-isopropyl-N-(1-methyl-1H-pyrrolo[2,3-b]pyridin-5-yl)-N-propylbenzamide] | – | 2100 ± 170 | – | GI50 (colorectal HCT116; [2]): 3760 ± 230 nM
17 | CC(C)c1cc(C(=O)N(c2cnc3c(ccn3C)c2)C(C)C)c(O)cc1O [Compound 24f, 2,4-dihydroxy-N, 5-diisopropyl-N-(1-methyl-1H-pyrrolo[2,3-b]pyridin-5-yl)benzamide] | – | 2060 ± 120 | – | GI50 (colorectal HCT116; [2]): 3140 ± 870 nM
18 | CC(C)c1cc(C(=O)Nc2ccc3[nH]ncc3c2)c(O)cc1O [Compound 25a, 2,4-dihydroxy-N-(1H-indazol-5-yl)-5-isopropylbenzamide] | – | > 10000 | > 10000 | –

Row | Structure (SMILES) | GI50 (lung A549; [1]) [nM] | GI50 (lung A549; [3]) [nM] | GI50 (prostate PC3) [nM] | also measured
19 | CC(C)c1cc(C(=O)N(C)c2ccc3c(cnn3C)c2)c(O)cc1O [Compound 25b, 2,4-dihydroxy-5-isopropyl-N-methyl-N-(1-methyl-1H-indazol-5-yl)benzamide] | – | 110 ± 10 | 100 ± 10 | –
20 | CC(C)c1cc(C(=O)Nc2cnc3c(cnn3C)c2)c(O)cc1O [Compound 26b, 2,4-dihydroxy-5-isopropyl-N-(1-methyl-1H-pyrazolo[3,4-b]pyridin-5-yl)benzamide] | – | > 10000 | – | GI50 (colorectal HCT116; [2]): > 10000 nM
21 | CC(C)c1cc(C(=O)N(C)c2cnc3c(cnn3C)c2)c(O)cc1O [Compound 26c, 2,4-dihydroxy-5-isopropyl-N-methyl-N-(1-methyl-1H-pyrazolo[3,4-b]pyridin-5-yl)benzamide] | – | 700 ± 40 | – | GI50 (colorectal HCT116; [2]): 1150 ± 220 nM
22 | CCN(C(=O)c1cc(C(C)C)c(O)cc1O)c1cnc2c(cnn2C)c1 [Compound 26d, N-ethyl-2,4-dihydroxy-5-isopropyl-N-(1-methyl-1H-pyrazolo[3,4-b]pyridin-5-yl)benzamide] | – | 380 ± 20 | – | GI50 (colorectal HCT116; [2]): 710 ± 60 nM
23 | CCCN(C(=O)c1cc(C(C)C)c(O)cc1O)c1cnc2c(cnn2C)c1 [Compound 26e, 2,4-dihydroxy-5-isopropyl-N-(1-methyl-1H-pyrazolo[3,4-b]pyridin-5-yl)-N-propylbenzamide] | – | 4210 ± 220 | – | GI50 (colorectal HCT116; [2]): 8290 ± 290 nM
24 | CC(C)c1cc(C(=O)N(c2cnc3c(cnn3C)c2)C(C)C)c(O)cc1O [Compound 26f, 2,4-dihydroxy-N, 5-diisopropyl-N-(1-methyl-1H-pyrazolo[3,4-b]pyridin-5-yl)benzamide] | – | 3640 ± 50 | – | GI50 (colorectal HCT116; [2]): 6860 ± 480 nM
25 | CC(C)c1cc(C(=O)Nc2cnc3ccccc3c2)c(O)cc1O [Compound 28a, 2,4-dihydroxy-5-isopropyl-N-(quinolin-3-yl)benzamide] | – | > 10000 | > 10000 | –
26 | CC(C)c1cc(C(=O)N(C)c2cnc3ccccc3c2)c(O)cc1O [Compound 28b, 2,4-dihydroxy-5-isopropyl-N-methyl-N-(quinolin-3-yl)benzamide] | – | > 10000 | > 10000 | –
27 | CCN(C(=O)c1cc(C(C)C)c(O)cc1O)c1cnc2ccccc2c1 [Compound 28c, N-ethyl-2,4-dihydroxy-5-isopropyl-N-(quinolin-3-yl)benzamide] | – | 280 ± 50 | – | –
28 | CC(C)c1cc(C(=O)Nc2cccc3ncccc23)c(O)cc1O [Compound 29a, 2,4-dihydroxy-5-isopropyl-N-(quinolin-5-yl)benzamide] | – | > 10000 | > 10000 | –
29 | CC(C)c1cc(C(=O)Nc2ccc3ncccc3c2)c(O)cc1O [Compound 30a, 2,4-dihydroxy-5-isopropyl-N-(quinolin-6-yl)benzamide] | – | > 10000 | > 10000 | –
30 | CC(C)c1cc(C(=O)N(C)c2ccc3ncccc3c2)c(O)cc1O [Compound 30b, 2,4-dihydroxy-5-isopropyl-N-methyl-N-(quinolin-6-yl)benzamide] | – | > 10000 | > 10000 | –
31 | CCN(C(=O)c1cc(C(C)C)c(O)cc1O)c1ccc2ncccc2c1 [Compound 30c, N-ethyl-2,4-dihydroxy-5-isopropyl-N-(quinolin-6-yl)benzamide] | – | 510 ± 90 | 460 ± 130 | –
32 | CC(C)c1cc(C(=O)Nc2cccc3cccnc23)c(O)cc1O [Compound 31a, 2,4-dihydroxy-5-isopropyl-N-(quinolin-8-yl)benzamide] | – | > 10000 | > 10000 | –
33 | CCN(C(=O)c1cc(C(C)C)c(O)cc1O)c1cccc2cccnc12 [Compound 31c, N-ethyl-2,4-dihydroxy-5-isopropyl-N-(quinolin-8-yl)benzamide] | – | 3700 ± 170 | 2400 ± 270 | –
34 | Cc1cc(NC(=O)c2cc(C(C)C)c(O)cc2O)c2ccccc2n1 [Compound 32a, 2,4-dihydroxy-5-isopropyl-N-(2-methylquinolin-4-yl)benzamide] | – | > 10000 | > 10000 | –
35 | CCN(C(=O)c1cc(C(C)C)c(O)cc1O)c1cccnc1C [Compound 34a, N-ethyl-2,4-dihydroxy-5-isopropyl-N-(2-methylpyridin-3-yl)benzamide] | – | – | – | GI50 (lung A549; Table 1, SRB, 48 h, read-out: GI50 Lung A549): > 10000 nM
36 | CCN(C(=O)c1cc(C(C)C)c(O)cc1O)c1cccnc1OCc1ccccc1 [Compound 34b, N-(2-(benzyloxy)pyridin-3-yl)-N-ethyl-2,4-dihydroxy-5-isopropylbenzamide] | – | 210 ± 10 | – | –
